Measurements from ChEMBL document CHEMBL1201862, “PubChem BioAssay data set” (2004).
The source made the active and inactive calls. For most assays here, no stated cut-off is given here; in the data, actives have a measured IC50 and inactives only a lower limit.

How the values were obtained:
Insulin-degrading enzyme [1] = biological target: T1, Insulin-degrading enzyme (Homo sapiens, UniProt P14735); assay: activators of recombinant IDE enzyme, dose response, counter-screen for IDE activator project, biochemical, fluorescence polarization (AID 588681)
T1 sequence (P14735 whole entry): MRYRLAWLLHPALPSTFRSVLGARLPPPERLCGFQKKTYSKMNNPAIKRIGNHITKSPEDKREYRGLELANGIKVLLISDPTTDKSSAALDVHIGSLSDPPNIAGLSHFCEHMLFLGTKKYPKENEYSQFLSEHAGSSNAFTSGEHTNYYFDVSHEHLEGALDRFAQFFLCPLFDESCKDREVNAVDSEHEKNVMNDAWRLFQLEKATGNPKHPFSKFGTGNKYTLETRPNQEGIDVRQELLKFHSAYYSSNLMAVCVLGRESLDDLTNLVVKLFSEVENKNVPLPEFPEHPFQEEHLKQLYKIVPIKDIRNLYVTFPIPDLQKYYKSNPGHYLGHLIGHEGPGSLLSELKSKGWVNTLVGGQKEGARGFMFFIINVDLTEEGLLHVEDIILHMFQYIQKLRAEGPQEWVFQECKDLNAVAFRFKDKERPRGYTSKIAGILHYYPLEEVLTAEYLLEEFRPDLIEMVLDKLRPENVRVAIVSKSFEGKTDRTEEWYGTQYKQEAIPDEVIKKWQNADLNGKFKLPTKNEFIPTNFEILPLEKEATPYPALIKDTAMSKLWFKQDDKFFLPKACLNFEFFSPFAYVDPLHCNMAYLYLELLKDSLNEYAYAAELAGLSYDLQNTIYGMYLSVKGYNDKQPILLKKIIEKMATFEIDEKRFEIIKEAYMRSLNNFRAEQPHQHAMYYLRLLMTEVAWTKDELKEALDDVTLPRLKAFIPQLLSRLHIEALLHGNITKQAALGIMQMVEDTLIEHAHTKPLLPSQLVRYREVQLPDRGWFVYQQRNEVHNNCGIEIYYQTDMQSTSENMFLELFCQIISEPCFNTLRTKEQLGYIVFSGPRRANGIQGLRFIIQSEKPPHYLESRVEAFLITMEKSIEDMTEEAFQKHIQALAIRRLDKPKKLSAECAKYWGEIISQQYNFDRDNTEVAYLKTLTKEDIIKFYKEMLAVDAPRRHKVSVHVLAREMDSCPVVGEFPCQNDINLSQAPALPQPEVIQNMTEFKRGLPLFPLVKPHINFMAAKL

[2] = biological target: T2, Apoptotic protease-activating factor 1 (Homo sapiens, UniProt O14727); type: functional
T2 sequence (O14727 whole entry): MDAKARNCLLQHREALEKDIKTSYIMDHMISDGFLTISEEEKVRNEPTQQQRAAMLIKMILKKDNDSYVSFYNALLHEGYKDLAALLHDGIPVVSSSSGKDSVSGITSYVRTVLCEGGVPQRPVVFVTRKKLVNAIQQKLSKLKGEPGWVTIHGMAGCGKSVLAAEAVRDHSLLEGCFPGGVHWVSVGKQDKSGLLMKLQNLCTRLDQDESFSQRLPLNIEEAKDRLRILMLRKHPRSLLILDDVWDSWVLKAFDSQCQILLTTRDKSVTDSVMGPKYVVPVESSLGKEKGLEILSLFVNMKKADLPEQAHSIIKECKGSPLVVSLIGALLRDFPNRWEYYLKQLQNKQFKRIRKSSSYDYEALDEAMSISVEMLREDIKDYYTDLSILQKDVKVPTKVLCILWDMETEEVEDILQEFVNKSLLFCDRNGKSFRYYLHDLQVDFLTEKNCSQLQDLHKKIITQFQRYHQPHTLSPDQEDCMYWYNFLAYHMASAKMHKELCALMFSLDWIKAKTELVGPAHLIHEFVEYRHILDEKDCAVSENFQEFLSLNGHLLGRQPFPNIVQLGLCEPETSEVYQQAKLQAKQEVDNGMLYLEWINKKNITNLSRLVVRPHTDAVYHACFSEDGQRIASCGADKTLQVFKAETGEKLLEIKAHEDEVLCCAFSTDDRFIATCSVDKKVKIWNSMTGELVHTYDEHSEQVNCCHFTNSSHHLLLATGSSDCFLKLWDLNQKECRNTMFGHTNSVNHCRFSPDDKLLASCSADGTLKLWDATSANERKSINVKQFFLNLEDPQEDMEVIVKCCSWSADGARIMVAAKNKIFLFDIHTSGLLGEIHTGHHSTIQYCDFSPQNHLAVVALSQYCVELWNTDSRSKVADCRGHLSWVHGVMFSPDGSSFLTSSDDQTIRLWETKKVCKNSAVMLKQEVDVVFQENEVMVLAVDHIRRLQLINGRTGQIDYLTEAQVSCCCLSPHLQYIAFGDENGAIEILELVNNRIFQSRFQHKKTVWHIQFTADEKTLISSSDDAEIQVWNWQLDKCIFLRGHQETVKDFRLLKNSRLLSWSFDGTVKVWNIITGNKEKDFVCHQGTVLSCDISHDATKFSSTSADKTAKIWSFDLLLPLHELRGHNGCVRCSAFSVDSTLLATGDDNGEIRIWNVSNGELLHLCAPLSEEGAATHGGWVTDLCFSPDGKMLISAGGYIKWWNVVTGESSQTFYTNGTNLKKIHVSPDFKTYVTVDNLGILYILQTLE

Insulin-degrading enzyme [3] = biological target: T1, Insulin-degrading enzyme; assay: activators of endogenous IDE in HEK cells, dose response, cell-based, fluorescence polarization (AID 588439); type: functional
HEK293 [4] = assay: HEK cell cytotoxicity by LDH release, dose response, cytotoxicity control for IDE activator project, fluorescence, HEK cells (AID 588440); type: functional, cell-based; settings: Homo sapiens;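 further: cytotoxicity by LDH release measuring loss of membrane integrity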
HEK293 [5] = assay: optical interference in Abeta FP readout, dose response, artefact control for IDE activator project, biochemical, fluorescence polarization (AID 588442); type: functional, cell-based; settings: Homo sapiens
[6] = biological target: T3, Sentrin-specific protease 8 (Homo sapiens, UniProt Q96LD8); assay: SENP8 protease inhibitors, SAR follow-up, biochemical, luminescence (AID 504501); type: functional
T3 sequence (Q96LD8 whole entry): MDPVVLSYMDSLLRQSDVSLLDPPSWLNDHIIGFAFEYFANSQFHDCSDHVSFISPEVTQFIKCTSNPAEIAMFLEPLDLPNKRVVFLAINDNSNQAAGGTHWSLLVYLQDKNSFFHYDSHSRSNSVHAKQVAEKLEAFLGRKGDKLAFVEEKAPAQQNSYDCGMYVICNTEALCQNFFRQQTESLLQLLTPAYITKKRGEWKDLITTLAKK

Caspase-3 = biological target: T4, Caspase-3 (Homo sapiens, UniProt P42574); assay: SAR Analysis of small molecule inhibitors of Sentrin-specific proteases (SENPs) using a Caspase-3 Selectivity assay. [Related pubchem assays (depositor defined):AID2540, AID2599, AID434973, AID489001]; type: functional
T4 sequence (P42574 whole entry): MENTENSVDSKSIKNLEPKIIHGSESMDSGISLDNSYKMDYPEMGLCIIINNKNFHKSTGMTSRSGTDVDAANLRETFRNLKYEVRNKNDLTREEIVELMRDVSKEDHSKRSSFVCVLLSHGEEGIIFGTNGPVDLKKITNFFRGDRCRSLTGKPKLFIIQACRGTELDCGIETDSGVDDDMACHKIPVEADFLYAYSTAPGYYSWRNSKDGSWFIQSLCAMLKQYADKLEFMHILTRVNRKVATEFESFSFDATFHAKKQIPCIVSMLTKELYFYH

[7] = biological target: T5, Sentrin-specific protease 6 (Homo sapiens, UniProt Q9GZR1); assay: SAR Analysis of small molecule inhibitors of Sentrin-specific protease 6 (SENP6) using a Luminescent assay. [Related pubchem assays (depositor defined):AID2582, AID2599]; type: functional
T5 sequence (Q9GZR1 whole entry): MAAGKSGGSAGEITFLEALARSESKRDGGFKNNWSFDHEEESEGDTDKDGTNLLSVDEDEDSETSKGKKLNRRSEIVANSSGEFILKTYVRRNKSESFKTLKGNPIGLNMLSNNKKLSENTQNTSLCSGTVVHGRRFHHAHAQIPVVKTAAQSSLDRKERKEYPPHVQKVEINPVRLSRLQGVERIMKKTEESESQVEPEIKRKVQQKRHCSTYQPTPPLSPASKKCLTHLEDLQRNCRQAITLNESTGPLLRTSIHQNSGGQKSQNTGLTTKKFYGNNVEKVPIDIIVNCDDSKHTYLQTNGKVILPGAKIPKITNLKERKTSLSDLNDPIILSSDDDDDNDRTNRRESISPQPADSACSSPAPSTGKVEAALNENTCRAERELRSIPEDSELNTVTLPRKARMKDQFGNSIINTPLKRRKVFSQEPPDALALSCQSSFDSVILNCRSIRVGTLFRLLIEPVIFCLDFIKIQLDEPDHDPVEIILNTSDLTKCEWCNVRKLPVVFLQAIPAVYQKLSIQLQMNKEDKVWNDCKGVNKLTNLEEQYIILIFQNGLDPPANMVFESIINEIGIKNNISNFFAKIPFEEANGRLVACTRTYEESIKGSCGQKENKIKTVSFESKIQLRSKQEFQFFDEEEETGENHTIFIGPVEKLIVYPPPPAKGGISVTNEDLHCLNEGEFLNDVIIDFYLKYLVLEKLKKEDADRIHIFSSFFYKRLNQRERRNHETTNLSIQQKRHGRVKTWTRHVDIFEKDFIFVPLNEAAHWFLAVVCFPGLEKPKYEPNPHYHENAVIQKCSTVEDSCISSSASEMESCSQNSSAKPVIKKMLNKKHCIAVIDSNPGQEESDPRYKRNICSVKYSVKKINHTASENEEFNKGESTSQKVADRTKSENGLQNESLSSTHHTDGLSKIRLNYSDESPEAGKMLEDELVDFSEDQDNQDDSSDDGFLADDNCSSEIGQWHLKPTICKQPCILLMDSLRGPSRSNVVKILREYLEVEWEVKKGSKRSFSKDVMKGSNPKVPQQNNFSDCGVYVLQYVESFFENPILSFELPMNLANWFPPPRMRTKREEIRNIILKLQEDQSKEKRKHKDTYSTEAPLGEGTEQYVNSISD

[8] = biological target: T6, Sentrin-specific protease 7 (Homo sapiens, UniProt Q9BQF6); assay: SENP7 protease inhibitors, SAR follow-up, biochemical, luminescence (AID 504497); type: functional
T6 sequence (Q9BQF6 whole entry): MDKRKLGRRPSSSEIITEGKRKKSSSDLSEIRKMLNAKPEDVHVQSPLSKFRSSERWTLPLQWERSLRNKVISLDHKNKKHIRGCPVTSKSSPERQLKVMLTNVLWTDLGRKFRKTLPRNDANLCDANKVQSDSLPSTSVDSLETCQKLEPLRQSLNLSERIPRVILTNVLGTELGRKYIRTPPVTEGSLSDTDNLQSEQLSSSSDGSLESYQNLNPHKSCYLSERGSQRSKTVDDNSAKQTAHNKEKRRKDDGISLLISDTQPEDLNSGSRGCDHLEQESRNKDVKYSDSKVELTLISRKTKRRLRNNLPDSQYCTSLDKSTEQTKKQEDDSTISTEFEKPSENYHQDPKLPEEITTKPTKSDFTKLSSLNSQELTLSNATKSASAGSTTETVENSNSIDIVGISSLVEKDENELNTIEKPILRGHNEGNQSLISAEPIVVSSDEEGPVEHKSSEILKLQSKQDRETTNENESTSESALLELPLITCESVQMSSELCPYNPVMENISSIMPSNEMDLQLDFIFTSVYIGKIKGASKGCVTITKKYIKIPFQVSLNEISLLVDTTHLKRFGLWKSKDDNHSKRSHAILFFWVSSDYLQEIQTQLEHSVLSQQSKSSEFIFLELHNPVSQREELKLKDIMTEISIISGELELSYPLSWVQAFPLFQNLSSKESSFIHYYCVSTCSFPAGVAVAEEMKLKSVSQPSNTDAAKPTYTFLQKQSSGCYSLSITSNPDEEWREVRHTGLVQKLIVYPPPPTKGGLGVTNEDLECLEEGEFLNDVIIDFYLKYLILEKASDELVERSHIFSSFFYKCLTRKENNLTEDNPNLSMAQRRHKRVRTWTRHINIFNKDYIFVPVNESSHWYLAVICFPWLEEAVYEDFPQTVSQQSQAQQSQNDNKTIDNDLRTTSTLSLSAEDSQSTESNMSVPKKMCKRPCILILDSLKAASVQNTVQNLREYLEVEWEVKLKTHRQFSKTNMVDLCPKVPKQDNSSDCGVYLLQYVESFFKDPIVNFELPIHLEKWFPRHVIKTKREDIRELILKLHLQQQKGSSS

[9] = biological target: T7, Carboxy-terminal domain RNA polymerase II polypeptide A small phosphatase 1 (Homo sapiens, UniProt Q9GZU7); assay: inhibitors of CTDSP1, concentration-response testing, biochemical assay, absorbance-based, actives from ultra-high-throughput screening (AID 540297); type: functional
T7 sequence (Q9GZU7 whole entry): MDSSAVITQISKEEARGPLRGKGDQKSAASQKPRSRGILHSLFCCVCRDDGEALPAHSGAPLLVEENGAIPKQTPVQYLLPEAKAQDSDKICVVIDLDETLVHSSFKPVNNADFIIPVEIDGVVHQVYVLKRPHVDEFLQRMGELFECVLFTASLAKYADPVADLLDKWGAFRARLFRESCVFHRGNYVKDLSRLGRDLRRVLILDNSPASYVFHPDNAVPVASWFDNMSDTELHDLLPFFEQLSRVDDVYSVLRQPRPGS

[10] = biological target: 26S proteasome non-ATPase regulatory subunit 14 (Homo sapiens, UniProt O00487); assay: inhibition of proteasome subunit RPN11 – biochemical, fluorescence polarization, uHTS hits, confirmation (AID 602368); type: functional
[11] = biological target: 72 kDa type IV collagenase (Homo sapiens, UniProt P08253); assay: Dose Response validation of uHTS RPN11 inhibitor hits using a MMP-2 Fluorescence assay.; type: functional
Prothrombin = Prothrombin (Bos taurus, UniProt P00735); assay: thrombin inhibition, dose response, biochemical, fluorescence polarization, uHTS hits (AID 602369); type: functional

72 kDa type IV collagenase, sequence (P08253 whole entry): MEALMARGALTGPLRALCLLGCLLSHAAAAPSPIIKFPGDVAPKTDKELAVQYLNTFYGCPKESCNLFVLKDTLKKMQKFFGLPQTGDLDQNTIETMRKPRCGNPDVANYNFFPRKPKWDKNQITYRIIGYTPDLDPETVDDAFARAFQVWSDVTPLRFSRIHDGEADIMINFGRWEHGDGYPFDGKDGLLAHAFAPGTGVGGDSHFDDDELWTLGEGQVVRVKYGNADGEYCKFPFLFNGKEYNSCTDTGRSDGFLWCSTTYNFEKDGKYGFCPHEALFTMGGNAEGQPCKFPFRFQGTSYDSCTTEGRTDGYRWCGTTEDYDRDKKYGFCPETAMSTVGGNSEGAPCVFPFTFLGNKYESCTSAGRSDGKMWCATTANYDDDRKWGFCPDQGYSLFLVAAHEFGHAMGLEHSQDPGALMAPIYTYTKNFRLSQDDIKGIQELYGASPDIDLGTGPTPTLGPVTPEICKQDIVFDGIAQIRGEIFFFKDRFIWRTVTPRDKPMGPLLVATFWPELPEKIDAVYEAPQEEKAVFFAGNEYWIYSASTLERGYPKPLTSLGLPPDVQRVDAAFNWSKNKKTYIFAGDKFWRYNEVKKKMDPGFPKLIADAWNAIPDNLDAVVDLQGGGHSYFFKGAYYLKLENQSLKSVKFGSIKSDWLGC
26S proteasome non-ATPase regulatory subunit 14, sequence (O00487 whole entry): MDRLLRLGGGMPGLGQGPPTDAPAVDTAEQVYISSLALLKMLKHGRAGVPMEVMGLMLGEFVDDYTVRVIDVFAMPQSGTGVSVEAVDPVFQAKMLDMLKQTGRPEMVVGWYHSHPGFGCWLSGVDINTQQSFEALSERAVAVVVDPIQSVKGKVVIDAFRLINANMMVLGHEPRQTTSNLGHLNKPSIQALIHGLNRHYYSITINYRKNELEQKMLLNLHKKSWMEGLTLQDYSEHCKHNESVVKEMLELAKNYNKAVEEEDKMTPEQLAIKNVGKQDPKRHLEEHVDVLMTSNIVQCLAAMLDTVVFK

CCCCNc1c(-c2ccc(SC(C)CC)cc2)nc2cnccn12 (configuration not stated)
EC50 (Insulin-degrading enzyme [1]): > 54.7 µM (inactive) | IC50 [2]: 63.1 µM (active) | EC50 (Insulin-degrading enzyme [3]): > 54.7 µM (inactive) | IC50 (HEK293 [4]): 27.4 µM (inactive) | EC50 (HEK293 [5]): > 55.9 µM (inactive)

Cc1nn(CC(=O)Nc2sc3c(c2C#N)CCCC3)c(C)c1I
IC50 [6]: > 99 µM (inactive) | IC50 (Caspase-3): > 99 µM (inactive) | IC50 [7]: > 99 µM (inactive) | IC50 [8]: > 99 µM (inactive)

CN(C)CCN(C(=O)c1ccc(S(=O)(=O)N2CCCCCC2)cc1)c1nc2cc3c(cc2s1)OCCO3
IC50 [6]: > 99 µM (inactive) | IC50 (Caspase-3): > 99 µM (inactive) | IC50 [7]: > 99 µM (inactive) | IC50 [8]: > 99 µM (inactive)

CCN(CC(=O)Nc1c(F)cccc1F)C(=O)CCc1nc2sc3c(c2c(=O)[nH]1)CCCC3
IC50 [9]: 4.4 µM (active) | IC50 [10]: 19.9 µM (active) | IC50 [11]: > 100 µM (inactive) | IC50 (Prothrombin): 85.3 µM (active)
